According to the CheMixHub viscosity set:
Values joined by “and” are separate entries in the source; they are usually repeats but may differ in a detail not shown here. Equal values may be shown once. ± gives the uncertainty stated by the source.

Experiment: xn = mol fraction of the nth substance listed

CC1COC(=O)O1 (stereo unspecified) + CO
Conditions	viscosity [mPa·s]
298 K, 101.3 kPa, x1 = 0.0206	0.5726 ± 0.004
298 K, 101.3 kPa, x1 = 0.0401	0.593 ± 0.0041
298 K, 101.3 kPa, x1 = 0.0604	0.6164 ± 0.0042
298 K, 101.3 kPa, x1 = 0.0808	0.6364 ± 0.0043
298 K, 101.3 kPa, x1 = 0.1018	0.6594 ± 0.0045
298 K, 101.3 kPa, x1 = 0.2016	0.7765 ± 0.0052
298 K, 101.3 kPa, x1 = 0.301	0.9078 ± 0.006
298 K, 101.3 kPa, x1 = 0.401	1.058 ± 0.0069
298 K, 101.3 kPa, x1 = 0.5016	1.229 ± 0.008
298 K, 101.3 kPa, x1 = 0.6002	1.418 ± 0.0091
298 K, 101.3 kPa, x1 = 0.7006	1.635 ± 0.01
298 K, 101.3 kPa, x1 = 0.8004	1.877 ± 0.012
298 K, 101.3 kPa, x1 = 0.9007	2.148 ± 0.014
298.15 K, 101.33 kPa, x2 = 0.0512	2.266 ± 0.017
298.15 K, 101.33 kPa, x2 = 0.0983	2.097 ± 0.015
298.15 K, 101.33 kPa, x2 = 0.1406	1.958 ± 0.014
298.15 K, 101.33 kPa, x2 = 0.1883	1.811 ± 0.013
298.15 K, 101.33 kPa, x2 = 0.2587	1.616 ± 0.011
298.15 K, 101.33 kPa, x2 = 0.343	1.414 ± 0.0098
298.15 K, 101.33 kPa, x2 = 0.3986	1.298 ± 0.0089
298.15 K, 101.33 kPa, x2 = 0.4723	1.167 ± 0.0079
298.15 K, 101.33 kPa, x2 = 0.5124	1.107 ± 0.0075
298.15 K, 101.33 kPa, x2 = 0.5819	1.001 ± 0.0067
298.15 K, 101.33 kPa, x2 = 0.6762	0.8678 ± 0.0058
298.15 K, 101.33 kPa, x2 = 0.758	0.7707 ± 0.0052
298.15 K, 101.33 kPa, x2 = 0.8297	0.6887 ± 0.0047
298.15 K, 101.33 kPa, x2 = 0.9256	0.5981 ± 0.0042
298.15 K, 101.33 kPa, x2 = 0.9495	0.5805 ± 0.0041
308.15 K, 101.33 kPa, x2 = 0.0512	1.895 ± 0.014
308.15 K, 101.33 kPa, x2 = 0.0983	1.757 ± 0.013
308.15 K, 101.33 kPa, x2 = 0.1406	1.648 ± 0.012
308.15 K, 101.33 kPa, x2 = 0.1883	1.533 ± 0.011
308.15 K, 101.33 kPa, x2 = 0.2587	1.377 ± 0.0098
308.15 K, 101.33 kPa, x2 = 0.343	1.213 ± 0.0085
308.15 K, 101.33 kPa, x2 = 0.4723	1.002 ± 0.0069
308.15 K, 101.33 kPa, x2 = 0.5124	0.948 ± 0.0065
308.15 K, 101.33 kPa, x2 = 0.5819	0.8651 ± 0.0059
308.15 K, 101.33 kPa, x2 = 0.6762	0.7581 ± 0.0052
308.15 K, 101.33 kPa, x2 = 0.8297	0.6034 ± 0.0042
308.15 K, 101.33 kPa, x2 = 0.8931	0.5517 ± 0.0039
308.15 K, 101.33 kPa, x2 = 0.9256	0.5282 ± 0.0038
308.15 K, 101.33 kPa, x2 = 0.9495	0.5118 ± 0.0037
318.15 K, 101.33 kPa, x2 = 0.0512	1.594 ± 0.012
318.15 K, 101.33 kPa, x2 = 0.0983	1.48 ± 0.011
318.15 K, 101.33 kPa, x2 = 0.1406	1.393 ± 0.01
318.15 K, 101.33 kPa, x2 = 0.1883	1.296 ± 0.0095
318.15 K, 101.33 kPa, x2 = 0.2587	1.169 ± 0.0084
318.15 K, 101.33 kPa, x2 = 0.343	1.034 ± 0.0074
318.15 K, 101.33 kPa, x2 = 0.3986	0.9607 ± 0.0068
318.15 K, 101.33 kPa, x2 = 0.4723	0.8683 ± 0.0061
318.15 K, 101.33 kPa, x2 = 0.5124	0.8232 ± 0.0058
318.15 K, 101.33 kPa, x2 = 0.5819	0.7459 ± 0.0052
318.15 K, 101.33 kPa, x2 = 0.8297	0.5281 ± 0.0038
318.15 K, 101.33 kPa, x2 = 0.8931	0.4829 ± 0.0036
318.15 K, 101.33 kPa, x2 = 0.9256	0.4621 ± 0.0034
318.15 K, 101.33 kPa, x2 = 0.9495	0.4486 ± 0.0034

COc1ccccc1 + CO
Conditions	viscosity [mPa·s]
298.15 K, 101 kPa, x1 = 0.0501	0.586 ± 0.0059
298.15 K, 101 kPa, x1 = 0.1098	0.623 ± 0.0063
298.15 K, 101 kPa, x1 = 0.1821	0.662 ± 0.0066
298.15 K, 101 kPa, x1 = 0.2706	0.707 ± 0.0071
298.15 K, 101 kPa, x1 = 0.3822	0.756 ± 0.0076
298.15 K, 101 kPa, x1 = 0.5271	0.809 ± 0.0081
298.15 K, 101 kPa, x1 = 0.7214	0.886 ± 0.0089
298.15 K, 101.33 kPa, x1 = 0.1024	0.6111 ± 0.016
298.15 K, 101.33 kPa, x1 = 0.2039	0.67 ± 0.018
298.15 K, 101.33 kPa, x1 = 0.2982	0.7131 ± 0.019
298.15 K, 101.33 kPa, x1 = 0.4027	0.7591 ± 0.02
298.15 K, 101.33 kPa, x1 = 0.4998	0.8009 ± 0.021
298.15 K, 101.33 kPa, x1 = 0.5991	0.8271 ± 0.022
298.15 K, 101.33 kPa, x1 = 0.7068	0.8651 ± 0.023
298.15 K, 101.33 kPa, x1 = 0.8061	0.8975 ± 0.024
298.15 K, 101.33 kPa, x1 = 0.9023	0.9373 ± 0.025
303 K, 101.3 kPa, x1 = 0.0499	0.5675 ± 0.079
303 K, 101.3 kPa, x1 = 0.1091	0.6038 ± 0.083
303 K, 101.3 kPa, x1 = 0.2686	0.6883 ± 0.093
303 K, 101.3 kPa, x1 = 0.5242	0.7935 ± 0.1
303 K, 101.3 kPa, x1 = 0.7199	0.8751 ± 0.11
303.15 K, 101.33 kPa, x1 = 0.1024	0.574 ± 0.015
303.15 K, 101.33 kPa, x1 = 0.2039	0.6257 ± 0.017
303.15 K, 101.33 kPa, x1 = 0.2982	0.6672 ± 0.018
303.15 K, 101.33 kPa, x1 = 0.4027	0.7035 ± 0.019
303.15 K, 101.33 kPa, x1 = 0.4998	0.7455 ± 0.02
303.15 K, 101.33 kPa, x1 = 0.5991	0.7718 ± 0.02
303.15 K, 101.33 kPa, x1 = 0.7068	0.8059 ± 0.021
303.15 K, 101.33 kPa, x1 = 0.8061	0.8374 ± 0.022
303.15 K, 101.33 kPa, x1 = 0.9023	0.8779 ± 0.023
308.15 K, 101.33 kPa, x1 = 0.1024	0.5506 ± 0.015
308.15 K, 101.33 kPa, x1 = 0.2039	0.5983 ± 0.016
308.15 K, 101.33 kPa, x1 = 0.2982	0.638 ± 0.017
308.15 K, 101.33 kPa, x1 = 0.4027	0.6731 ± 0.018
308.15 K, 101.33 kPa, x1 = 0.4998	0.7065 ± 0.019
308.15 K, 101.33 kPa, x1 = 0.5991	0.735 ± 0.019
308.15 K, 101.33 kPa, x1 = 0.7068	0.7683 ± 0.02
308.15 K, 101.33 kPa, x1 = 0.8061	0.7978 ± 0.021
308.15 K, 101.33 kPa, x1 = 0.9023	0.8373 ± 0.022
313.15 K, 101.33 kPa, x1 = 0.1024	0.4934 ± 0.013
313.15 K, 101.33 kPa, x1 = 0.2039	0.5372 ± 0.014
313.15 K, 101.33 kPa, x1 = 0.2982	0.5706 ± 0.015
313.15 K, 101.33 kPa, x1 = 0.4027	0.6023 ± 0.016
313.15 K, 101.33 kPa, x1 = 0.4998	0.6345 ± 0.017
313.15 K, 101.33 kPa, x1 = 0.5991	0.6601 ± 0.017
313.15 K, 101.33 kPa, x1 = 0.7068	0.6865 ± 0.018
313.15 K, 101.33 kPa, x1 = 0.8061	0.7174 ± 0.019
313.15 K, 101.33 kPa, x1 = 0.9023	0.751 ± 0.02

c1ccc2ccccc2c1 + CO
298.15 K, 101 kPa
Conditions	viscosity
x1 = 0.006	0.5509 ± 0.0038 mPa·s
x1 = 0.01	0.5564 ± 0.0038 mPa·s and 0.5619 ± 0.0039 mPa·s
x1 = 0.03	0.5893 ± 0.0043 mPa·s

CC1COC(=O)O1 (stereo unspecified) + COC(=O)OC
298.15 K, 101.3 kPa
Conditions	viscosity [mPa·s]
x2 = 0.0944	2.217 ± 0.019
x2 = 0.1815	1.965 ± 0.017
x2 = 0.3215	1.618 ± 0.014
x2 = 0.4861	1.287 ± 0.011
x2 = 0.5752	1.138 ± 0.01
x2 = 0.6827	0.98 ± 0.008
x2 = 0.7254	0.924 ± 0.008
x2 = 0.7801	0.856 ± 0.007
x2 = 0.9012	0.724 ± 0.006
